These are literature values, as cited in publication PMC8067507, “Aryl Urea Based Scaffolds for Multitarget Drug Discovery in Anticancer Immunotherapies” (Pharmaceuticals, 2021).

Usually IC50 stands for the concentration needed to halve the response being measured.

This series deals with all tested cell lines (HT-29, MCF-7, HeLa, A549, HMEC-1, HEK-293). Details: method as in PMID 30878834. The note with it: chlorophenyl derivatives of the previous study; read-out: IC50 values (range over cell lines); cited from earlier work.

Each structure is given as a SMILES string.

Take `COc1ccc(/C=C/c2cccc(NC(=O)Nc3cccc(Cl)c3)c2)cc1` [Compound 5]: the IC50 was 2000 to 11000 nM.

Regarding `COc1ccc(/C=C/c2cccc(NC(=O)Nc3ccc(Cl)cc3)c2)cc1` [Compound 6], the IC50 was 400 to 1800 nM.
